Data taken from US20220257604A1, “COMPOSITIONS AND METHODS FOR […] INFECTIONS BY REGULATING GLUCOSYLCERAMIDES” (priority 2019, published 2022).

Assays:
A549 cells [1] = type: cell-based, human; conditions: 40 minutes at 37° C., compared with GBA KO cells
A549 cells [2] = type: cell-based, human; conditions: WT A549 cells pretreated with nocodazole; EGF-555 100 ng/mL; 40 minutes at 37° C.; compared with GBA KO cells

For `COC(=O)Nc1nc2ccc(C(=O)c3cccs3)cc2[nH]1` [nocodazole], the “colocalization of influenza with Lamp1 (Manders coefficient)” value (A549 cells [1]) was “not as strongly as in WT cells treated with nocodazole” and the “colocalization of EGF with Lamp1 (Manders coefficient)” value (A549 cells [2]) was “not as severe as seen in WT cells treated with nocodazole”.
